According to patent US5936097A, “4,9-ethano-benzo(F)isoindole derivatives as farnesyl transferase inhibitors” (Rhone-Poulenc Rorer, S.A., priority 1995, dated 1999):

Target: T1, human farnesyl transferase (Homo sapiens, UniProt P49354+P49356)
T1 construct: human farnesyl transferase purified from THP1 cell cultures; endogenous in cells; host or cells: THP1 cell cultures (enzyme purified from the cells)
Experiment: inhibition of farnesyl transferase ((3H) farnesyl transfer from (3H) FPP to p21 H-ras)
Assay type: biochemical
Conditions: not given
Experimental: Farnesyl transferase activity is determined by the amount of (^3 H) farnesyl transferred from (^3 H) farnesylpyrophosphate [(^3 H) FPP] to the p21 H-ras protein. The standard reaction mixture is composed, for a final volume of […], of 50 mM Tris-HCl, 5 mM MgCl2, 5 mM dithiotreitol, 0.2% octyl b-D-glucopyranoside, 200 picomol p21 H-ras, 4.5 picomol (^3 H) FPP (activity 61000 dpm/picomol).
Reaction is initiated by adding approximately 5 ng of human farnesyl transferase purified from THP1 cell cultures. After incubation for 20 minutes at 37° C. in a microtitration plate containing 96 1-cm^3 wells per plate (Titer Plate®, Beckman), the reaction is stopped by adding 0.4 cm^3 of 0.1% SDS in methanol at 0° C. The mixture is then treated with 0.4 cm^3 of 30% trichloroacetic® acid (TCA) in methanol. The plates are left in ice for 1 hour. The precipitated contents are then retained on Filtermat®, Pharmacia), glass® fibre membranes with the filtration unit (Combi Cell Harvester®, Skatron), and rinsed with 6% trichloroacetic acid in distilled water. The membranes are dried in a microwave oven, then impregnated with scintillation medium by melting of Meltilex® (Pharmacia) under hot air, and lastly counted in cpm in a b-Plate counter® (LKB). Each test is repeated 3 times.
The unit of activity is defined as 1 picomole of (^3 H) FPP transferred to p21 H-ras in 20 minutes.
The percentage inhibition values are obtained by comparison of the tests with and without inhibitor after deduction of blanks, the IC50 values being measured on the basis of the inhibitions obtained with 9 different concentrations using Enzfitter® or Grafit® software.

Compared with `COc1ccccc1C(=O)C(=O)N1C[C@@H]2[C@]3(c4ccccc4)CC[C@@H](c4ccccc43)[C@]2(C(=O)O)C1` (racemic) [Example 42, (3aRS,4SR,9SR,9aRS)-4,9-ethano-2-[2-(2-methoxyphenyl)-2-oxoacetyl]-9-phenyl-2,3,3a,4,9,9a-hexahydro-1H-benzo[f]isoindole-3a-carboxylic acid], `COc1ccccc1CC(=O)N1C[C@H]2[C@@]3(c4ccccc4)CC[C@H](c4ccccc43)[C@@]2(C(=O)O)C1` (relative stereo) [Example 2, (3aRS, 4SR, 9SR, 9aRS)-4,9-ethano-2-(2-methoxyphenyl)acetyl-9-phenyl-2,3,3a,4,9,9a-hexahydro-1H-benzo[f]isoindole-3a-carboxylic acid] is 27-fold lower in IC50: 8.45 µM for the first, 0.31 µM for the second. The second is the more potent here.

With `COC(=O)[C@]12CN(C(=O)Cc3ccccc3OC)C[C@H]1[C@@]1(c3ccccc3)CC[C@@H]2c2ccccc21` (relative stereo) [Example 1, methyl ester of (3aRS, 4SR, 9SR, 9aRS)-4,9-ethano-2-(2-methoxyphenyl)acetyl-9-phenyl-2,3,3a,4,9,9a-hexahydro-1H-benzo[f]isoindole-3a-carboxylic acid] the IC50 was 0.41 µM.

Same assay, conditions: human farnesyl transferase purified from THP1 cell cultures; p21 H-ras substrate; 20 minutes at 37° C.; 9 concentrations; read-out: in vitro inhibitory activity IC50

Compared with `COc1ccc(CSSCc2ccc(OC)c(CC(=O)N3CC4C5(c6ccccc6)CCC(c6ccccc65)C4(C(=O)O)C3)c2)cc1CC(=O)N1CC2C3(c4ccccc4)CCC(c4ccccc43)C2(C(=O)O)C1` (racemic) [Example 37, disulphide of (3aRS, 4SR, 9SR, 9aRS)-4,9-ethano-2-(2-methoxy-5-(mercaptomethyl)-phenyl)acetyl-9-phenyl-2,3,3a,4,9,9a-hexahydro-1H-benzo[f]isoindole-3a-carboxylic acid], `COc1ccccc1CC(=O)N1C[C@@H]2[C@]3(c4ccccc4)CC[C@@H](c4ccccc43)[C@]2(C(=O)NOCc2ccccc2)C1` (racemic) [Example 45, (3aRS,4SR,9SR,9aRS)-N-benzyloxy-4,9-ethano-2-(2-methoxyphenylacetyl)-9-phenyl-2,3,3a,4,9,9a-hexahydro-1H-benzo[f]isoindole-3a-carboxamide] is 5.8-fold lower in IC50: 7.4 µM for the first, 1.27 µM for the second. The second is the more potent here.

First: COc1ccccc1C1(C(=O)N2C[C@@H]3[C@]4(c5ccccc5)CC[C@@H](c5ccccc54)[C@]3(C(=O)O)C2)CC1 (racemic) [Example 41, (3aRS,4SR,9SR,9aRS)-4,9-ethano-2-[1-(2-methoxyphenyl)-cyclopropan-1-oyl]-9-phenyl-2,3,3a,4,9,9a-hexa-hydro-1H-benzo[f]isoindole-3a-carboxylic acid]
Second: C/C=C(/C(=O)N1C[C@@H]2[C@]3(c4ccccc4)CC[C@@H](c4ccccc43)[C@]2(C(=O)O)C1)c1ccccc1OC (racemic) [Example 78, (3aRS,4SR,9SR,9aRS)-4,9-ethano-2-[2(E)-(2-methoxyphenyl)-2-butenoyl]-9-phenyl-2,3,3a,4,9,9a-hexahydro-1H-benzo[f]isoindole-3a-carboxylic acid]
The IC50 of the first is 1.7-fold higher: 1.1 µM for the first, 0.65 µM for the second. The second is the more potent here.

Going from `C=C(C(=O)N1C[C@@H]2[C@]3(c4ccccc4)CC[C@@H](c4ccccc43)[C@]2(C(=O)NOC)C1)c1ccccc1OC` (racemic) [Example 44, (3aRS,4SR,9SR,9aRS)-N-methoxy-4,9-ethano-2-[2-(2-methoxyphenyl)prop-2-en-1-oyl]-9-phenyl-2,3,3a,4,9,9a-hexahydro-1H-benzo[f]isoindole-3a-carboxamide] to `COc1ccccc1C(C(=O)N1C[C@@H]2[C@]3(c4ccccc4)CC[C@@H](c4ccccc43)[C@]2(C(=O)O)C1)=C(C)C` (racemic) [Example 79, (3aRS,4SR,9SR,9aRS)-4,9-ethano-2-[2-(2-methoxyphenyl)-3-methyl-2-butenoyl]-9-phenyl-2,3,3a,4,9,9a-hexahydro-1H-benzo[f]isoindole-3a-carboxylic acid], the IC50 rises from 0.11 µM to 5.05 µM (46-fold). The first is the more potent here.

Compared with `COc1ccccc1CC(=O)N1C[C@@H]2[C@]3(c4ccccc4)CC[C@@H](c4ccccc43)[C@]2(C(=O)NO)C1` (racemic) [Example 46, (3aRS,4SR,9SR,9aRS)-4,9-ethano-2-(2-methoxyphenylacetyl)-9-phenyl-2,3,3a,4,9,9a-hexahydro-1H-benzo[f]isoindole-3a-carbohydroxamic acid], `COc1ccccc1CC(=O)N1C[C@H]2[C@@]3(c4ccccc4)CC[C@H](c4ccccc43)[C@@]2(C(N)=O)C1` (relative stereo) [Example 3, (3aRS, 4SR, 9SR, 9aRS)-4,9-ethano-2-(2-methoxyphenyl)acetyl-9-phenyl-2,3,3a,4,9,9a-hexahydro-1H-benzo[f]isoindole-3a-carboxamide] is 3.8-fold higher in IC50: 1.25 µM for the first, 4.7 µM for the second.

`COc1ccccc1CC(=O)N1C[C@H]2[C@@]3(c4ccccc4)CC[C@H](c4ccccc43)[C@@]2(C(=O)NCCN(C)C)C1` (relative stereo) [Example 4, (3aRS, 4SR, 9SR, 9aRS)-N-(2-dimethylaminoethyl)-4,9-ethano-2-(2-methoxyphenyl)acetyl-9-phenyl-2,3,3a,4,9,9a-hexahydro-1H-benzo[f]isoindole-3a-carboxamide] and `CNCCNC(=O)[C@]12CN(C(=O)Cc3ccccc3OC)C[C@H]1[C@@]1(c3ccccc3)CC[C@@H]2c2ccccc21` (relative stereo) [Example 5, (3aRS, 4SR, 9SR, 9aRS)-N-(2-methylaminoethyl)-4,9-ethano-2-(2-methoxyphenyl)acetyl-9-phenyl-2,3,3a,4,9,9a-hexahydro-1H-benzo[f]isoindole-3a-carboxamide] are within 1.5-fold of each other in IC50: 9.4 µM for the first, 7 µM for the second.

`CCOC(=O)[C@]12CN(C(=O)Cc3ccccc3OC)C[C@H]1[C@@]1(c3ccccc3)CC[C@@H]2c2ccccc21` (relative stereo) [Example 10, ethyl ester of (3aRS, 4SR, 9SR, 9aRS)-4,9-ethano-2-(2-methoxyphenyl)acetyl-9-phenyl-2,3,3a,4,9,9a-hexahydro-1H-benzo[f]isoindol-3a-carboxylic acid] and `COc1ccccc1CC(=O)N1C[C@H]2[C@@]3(c4ccccc4)CC[C@H](c4ccccc43)[C@@]2(CC(=O)O)C1` (relative stereo) [Example 19, (3aRS, 4SR, 9SR, 9aRS)-4,9-ethano-2-(2-methoxyphenyl)acetyl-9-phenyl-2,3,3a,4,9,9a-hexahydro-1H-benzo[f]isoindol-3a-acetic acid] are within 1.5-fold of each other in IC50: 4.35 µM for the first, 5.6 µM for the second.

`COc1ccccc1CC(=O)N1C[C@H]2[C@@]3(c4ccccc4)CC[C@H](c4ccccc43)[C@@]2(NC=O)C1` (relative stereo) [Example 11, (3aRS, 4SR, 9SR, 9aRS)-3a-formylamino-4,9-ethano-2-(2-methoxyphenyl)acetyl-9-phenyl-2,3,3a,4,9,9a-hexahydro-1H-benzo[f]isoindole] and `COc1ccccc1CC(=O)N1C[C@H]2[C@@]3(c4ccccc4)CC[C@H](c4ccccc43)[C@@]2(NC(=O)CN)C1` (relative stereo) [Example 12, (3aRS, 4SR, 9SR, 9aRS)-3a-glycylamino-4,9-ethano-2-(2-methoxyphenyl)acetyl-9-phenyl-2,3,3a,4,9,9a-hexahydro-1H-benzo[f]isoindole] are within 1.5-fold of each other in IC50: 6.95 µM for the first, 7.5 µM for the second.

Going from `CCOC(=O)CC(=O)N[C@]12CN(C(=O)Cc3ccccc3OC)C[C@H]1[C@@]1(c3ccccc3)CC[C@@H]2c2ccccc21` (relative stereo) [Example 15, (3aRS, 4SR, 9SR, 9aRS)-4,9-ethano-3a-ethoxycarbonylacetylamino-2-(2-methoxyphenyl)acetyl-9-phenyl-2,3,3a,4,9,9a-hexahydro-1H-benzo[f]isoindole] to `COc1ccccc1CC(=O)N1C[C@H]2[C@@]3(c4ccccc4)CC[C@H](c4ccccc43)[C@@]2(NC(=O)CC(=O)O)C1` (relative stereo) [Example 16, (3aRS, 4SR, 9SR, 9aRS)-4,9-ethano-3a-carboxylacetylamino-2-(2-methoxyphenyl)acetyl-9-phenyl-2,3,3a,4,9,9a-hexahydro-1H-benzo[f]isoindole], the IC50 falls from 9 µM to 3.03 µM (3-fold).

`COc1ccccc1CC(=O)N1C[C@H]2[C@@]3(c4ccccc4)CC[C@H](c4ccccc43)[C@@]2(NC(=O)CCC(=O)O)C1` (relative stereo) [Example 17, (3aRS, 4SR, 9SR, 9aRS)-4,9-ethano-3a-(3-carboxypropionyl)amino-2-(2-methoxyphenyl)acetyl-9-phenyl-2,3,3a,4,9,9a-hexahydro-1H-benzo[f]isoindole] and `COc1ccccc1CC(=O)N1C[C@H]2[C@@]3(c4ccccc4)CC[C@H](c4ccccc43)[C@@]2(CC(=O)NCC(=O)O)C1` (relative stereo) [Example 20, N-[(3aRS, 4SR, 9SR, 9aRS)-4,9-ethano-2-(2-methoxyphenyl)acetyl-9-phenyl-2,3,3a,4,9,9a-hexahydro-1H-benzo[f]isoindol-3a-yl]acetylglycine] are within 1.5-fold of each other in IC50: 4.9 µM for the first, 4.8 µM for the second.

With `COc1ccccc1CC(=O)N1C[C@H]2[C@@]3(c4ccccc4)CC[C@H](c4ccccc43)[C@@]2(C[n+]2ccccc2)C1` (relative stereo) [Example 18, N-[(3aRS, 4SR, 9SR, 9aRS)-4,9-ethano-2-(2-methoxyphenyl)acetyl-9-phenyl-2,3,3a,4,9,9a-hexahydro-1H-benzo[f]isoindolyl-3a-methyl]pyridinium trifluoromethanesulphonate] the IC50 was 10 µM.
